Assay results from patent publication US6593307B1, “Cyclic-ADP-ribose analogs” (Regents of the University of Minnesota, priority 1999, dated 2003).
Entries after “also recorded” stand apart in the source; their conditions may differ. Where two headings read alike, the source gives them in different places. One block for each compound: values may come before it.

Columns and labels:
[1] = tested on: cord blood (CB) mononuclear cells (MNC)
Procedure: (§2) After liquid culture, an appropriate number of MNC or CD34^+-enriched cells was plated in methylcellulose medium supplemented with a mixture of hemopoietic growth factors (Methocult; Stem Cell Technologies, Vancouver, BC, Canada). After 14 days of incubation in a humidified, 5% CO2 atmosphere at 37° C., colonies were scored using an inverted microscope, applying standard criteria for their identification.

[2] = tested on: sea urchin egg homogenates; experiment: Ca2+ release assay in sea urchin egg homogenates; assay type: biochemical, Strongylocentrotus purpuratus; conditions: for EC50: S. purpuratus egg homogenates, read-out: half-maximal concentration for Ca2+ release (EC50)
Procedure: The dilutions and all experiments were conducted at 17° C. Free Ca^2+ concentrations were measured by monitoring the fluorescence (490 nm excitation, 535 nm emission) of the indicator using a Perkin Elmer Model 650 spectrofluometer. […] For some experiments a BMG FluoStar 96 well fluorescence plate reader was used. In this case, samples to be tested were added to wells of a 96 well plate in 1.5 μl aliquots. Calcium release was initiated by adding 150 μl of homogenate to each well with a multichannel pipette. Six to eight wells were measured simultaneously. Samples to be tested were diluted in IM buffer containing 10 μM EGTA.

[3] = Stability to heat (boiling water bath), read out by Ca2+ release
Description: Aliquots were then cooled on ice and the ability of the sample to release Ca^2+ determined. Data is average±sd for a representative experiment performed in triplicate.

CD38 [4] = experiment: Stability to hydrolysis by CD38, read out by Ca2+ release
CB MNC [5] = experiment: Fluorimetric determination of [Ca2+]i in CB MNC (FURA 2); assay type: cell-based, human
Procedure: Measurements were performed at room temperature in a 2 ml-cuvette under continuous stirring. […] Chem., 273, 8017-8024. The frequency of recording was 1 point/s. All measurements were performed in Ca^2+-free external solutions.

Live L. pictus eggs = experiment: Microinjection into live sea urchin eggs (Ca2+ mobilization, cortical reaction)
Description: Live L. pictus eggs were preloaded with the calcium indicator, fluo 3, by microinjection.

CD38 [6] = conditions: 1 μg/ml CD38 at 37° C.
CB MNC [7] = experiment: Cytosine arabinoside-susceptibility of CB MNC CFC; assay type: cell-based, human
Description: Thereafter, cells were washed, counted and plated in semisolid medium for assay of CFC at a concentration of 10^4 MNC/plate.

[8] = tested on: specific microsomal binding site for cADPR; conditions: cited from earlier work
[9] = general statement, not tested here; cited from earlier work
L. pictus = conditions: cited from earlier work
[10] = tested on: cord blood (CB) mononuclear cells (MNC); experiment: Colony size (cells per colony) from CB MNC; assay type: cell-based, human; conditions: 100 μM, 24 hours priming
Procedure: as §2

[11] = tested on: bone marrow (BM)-derived clonogenic progenitors; experiment: CFC output of bone marrow-derived clonogenic progenitors; assay type: cell-based, human; conditions: 100 μM, 24 hours, n=3
Description: (§1) Normal bone marrow (BM) cells were obtained from donors providing marrow for allogeneic transplantation. Leukapheresis samples were obtained from normal donors providing peripheral blood (PB) progenitor cells for allogeneic transplant after a short course of granulocyte colony-stimulating factor. All donors gave informed consent. Mononuclear cells (MNC) from CB, BM and PB were separated by density gradient centrifugation on Ficoll-Hypaque (Sigma). After separation, cells were washed twice in Iscove's Modified Dulbecco's Medium (IMDM) containing 5% fetal calf serum (FCS) and resuspended in IMDM containing 10% FCS, penicillin 100 U/ml, streptomycin 100 μg/ml and glutamine 2 mM (complete medium).

CD34+-enriched MNC = experiment: CFC growth from CD34+-enriched fractions; assay type: cell-based, human; conditions: 100 μM, 24 hours, n=6
Procedure: Immunoaffinity purification of CD34^+ cells was used to enrich MNC in colony forming cells (CFC) and early progenitors (Krause, D. […] CD34^+ cell enrichment was performed by positive selection using the miniMACS immunomagnetic separation system (Miltenyi Biotec GmBH, Germany). Briefly, PB- or CB-derived MNC were suspended in phosphate-buffered saline (PBS) containing 0.5% bovine serum albumin and 5 mM EDTA and CD34^+ cells were separated using anti-CD34 antibody (clone: QBEND/10; isotype: mouse IgG1) and colloidal superparamagnetic beads. After labeling, the cell suspension was passed through a column held within a magnetic field causing CD34^+ cells to be retained in the column. Purified CD34^+ cells were then collected following removal of the column from the magnet and washing with buffer.

[12] = tested on: peripheral blood (PB)-derived clonogenic progenitors; experiment: CFC output of peripheral blood-derived clonogenic progenitors; assay type: cell-based, human; conditions: 100 μM, 24 hours, n=2
Description: as §1

[13] = 100 nM in pipette, about 0.7 nM in the egg
[14] = 1 μM in pipette, about 10 nM in the egg
[15] = 10 μM in pipette, ~130 nM in the egg

Compound: N=c1c2ncn3c2ccn1C1OC(COP(=O)(O)OP(=O)(O)OCC2OC3C(O)C2O)C(O)C1O (stereo not shown) [3-deaza-cADPR, cyclic 3-deaza-adenosine diphosphoribose]
median CFC output ([1]; 1 nM, n=5, control 1,150): 2,050 CFC/ml
median CFC output ([1]; 1 μM, n=5, control 1,150): 2,200 CFC/ml
CFC output compared to untreated cells ([1]; 1, 10, 100 and 1,000 nM, each concentration): significant increase
effect of 1 nM as share of the effect induced by 1 μM ([1]; CFC output): 95%
lag before Ca2+ release at low concentrations [2]: an appreciable lag is seen
desensitization of homogenate to subsequent challenge by the other agonist ([2]; 1 μM cADPR, 500 nM 3-deaza-cADPR): renders the system unresponsive
EC50 [2]: 1 ± 0.4 nM
final concentration able/needed to elicit Ca2+ release ([2]; control traces, FIG. 3): 0.3 nM
resistance to heat hydrolysis [3]: resistant
fraction inactivated upon boiling ([3]; boiling for up to two hours, 350 nM): about 15%
resistance to enzymatic hydrolysis (CD38 [4]): resistant
[Ca2+]i after 24 hours (CB MNC [5]; 10 nM 3-deaza-cADPR, n=7, basal 20.3±1.8): 96.4 ± 5.0 nM
calcium response of intact cells over 30 min (CB MNC [5]; 100 μM cADPR or 10 nM 3-deaza-cADPR, zero-calcium external solution): same rate and extent
calcium levels following removal of the nucleotide (CB MNC [5]; at least 48 hours after removal): remained unchanged
[Ca2+]i(t=0), fitted parameter (CB MNC [5]; single exponential fit, 10 nM): 21.1 ± 0.6 nM
Δmax[Ca2+]i, fitted maximal calcium change (CB MNC [5]; single exponential fit, 10 nM): 74.0 ± 0.7 nM
τ, time constant of [Ca2+]i increase (CB MNC [5]; single exponential fit, 10 nM): 6.5 h
Ca2+ transient (Live L. pictus eggs; [13]): small
injected eggs with partial cortical reaction (Live L. pictus eggs; [13]): 1 out of 6
full cortical reactions out of the 7 eggs injected (Live L. pictus eggs; [14]): 4
partial cortical reaction out of the 7 eggs injected (Live L. pictus eggs; [14]): 1
Ca2+ transient (Live L. pictus eggs; [15]): large
eggs with full cortical reaction (Live L. pictus eggs; [15]): 5 out of 5
hydrolysis by CD38 (CD38 [6]): did not hydrolyze

Compound: Nc1ccn([C@@H]2O[C@H](CO)[C@@H](O)[C@@H]2O)c(=O)n1 [c-ARA, Cytosine arabinoside]
effect on the growth-stimulating effect of cADPR (CB MNC [7]; 1 μM c-ARA, 24 hours): complete inhibition
effect on increased replating efficiency produced by cADPR priming (CB MNC [7]; 1 μM c-ARA, 24 hours pretreatment): did not affect
median colony number (CB MNC [7]; c-ARA pretreated (1 μM, 24 hours), incubated without cADPR, n=8): 21 per 10^4 plated MNC

Compound: inositol trisphosphate
competition for the cADPR binding site relative to cADPR [8]: at least a thousand times less effectively than cADPR

EC50 [2]: ~25 nM
Compound: N=c1c2ccn3c2ncn1C1OC(COP(=O)(O)OP(=O)(O)OCC2OC3C(O)C2O)C(O)C1O (stereo not shown) [7-deaza-cADPR]
resistance of the N1-glycosidic linkage to hydrolysis [9]: resistant to hydrolysis
agonist character [2]: partial agonist
Ca2+ release relative to that induced by cADPR or 3-deaza-cADPR ([2]; maximal response, FIG. 4): about 70%
relative potency of cADPR and 7-deaza-cADPR (L. pictus): cADPR is more potent than 7-deaza-cADPR

Compound: Nc1ncnc2c1ncn2[C@@H]1O[C@H](COP(=O)(O)OP(=O)(O)OC[C@H]2OC(O)[C@H](O)[C@@H]2O)[C@@H](O)[C@H]1O (stereo partly shown) [ADPR, ADP-ribose]
Median CFC number per ml ([1]; 100 μM, 24 hours, CB MNC): 2,141 CFC/ml
Range of CFC number per ml ([1]; 100 μM, 24 hours, CB MNC): 600-13,120 CFC/ml
effect on CFC growth compared to untreated cells ([1]; any of the concentrations tested (1-1,000 μM)): No effect
Median number of cells per colony [10]: 11,560
Range of number of cells per colony [10]: 6,200-19,000
median CFC output, BM-derived [11]: 1,500 CFC/ml
median CFC growth from CD34+-enriched fractions (CD34+-enriched MNC): 18,000 CFC/10^6 MNC
range of CFC growth from CD34+-enriched fractions (CD34+-enriched MNC): 360-70,000 CFC/10^6 MNC
median CFC output, PB-derived [12]: 1,460 CFC/ml

Compound: N=c1c2nc(N)n3c2ncn1[C@@H]1O[C@H](COP(=O)(O)OP(=O)(O)OC[C@H]2O[C@@H]3[C@H](O)[C@@H]2O)[C@@H](O)[C@H]1O [8-NH2-cADPR]
mean CFC output ([1]; 10 μM 8-NH2-cADPR plus 10-fold excess cADPR (100 μM), 24 hours, control 2,800): 1,200 CFC/ml
mean CFC output ([1]; 10 μM 8-NH2-cADPR plus 100-fold excess cADPR (1 mM), 24 hours, control 2,600): 2,500 CFC/ml
effect on colony growth ([1]; 10 μM, 24 hours pre-treatment): completely inhibited colony growth
median CFC output ([1]; 10 μM, 24 hours, n=3, untreated 3,400): zero
colony growth after further 24 hours with cADPR (100 μM) ([1]; after 10 μM 8-NH2-cADPR pre-treatment): did not restore colony growth
effect on 3-deaza-cADPR-induced Ca2+ release ([2]; 2.7 nM 3-deaza-cADPR, 60 and 300 nM 8-amino-cADPR): blocks; also recorded: can also inhibit
amount of Ca2+ releasable by calcium ionophore A23187 vs untreated (CB MNC [5]; 10 μM, 24 hours): consistent increase
basal [Ca2+]i after incubation (CB MNC [5]; 10 μM, 24 hours, n=3, from 20±2): 14 ± 1 nM
effect on calcium increase induced by cADPR (CB MNC [5]; 100 μM, 2 hours pre-incubation): completely inhibited
[Ca2+]i following exposure to cADPR (CB MNC [5]; 2 hours pre-incubation with 100 μM 8-NH2-cADPR, then 100 μM cADPR for 4 hours, n=2): 20 nM
